Measured values from US9023987B2, “Cell-permeable peptide” (Seoul National University R&DB Foundation, priority 2010, dated 2015).

Tests used:
[1] = system: human mesenchymal stem cells (hMSC); experiment: Cell permeability by flow cytometry; format: cell-based; set-up: dose or concentration left out as unconfirmed; conditions: FITC-labeled, relative to bone differentiation inducing sequence, FIG. 3B
Protocol: The domains synthesized in Example 1 and Comparative Examples 1 and 2 were labeled with a fluorescent material in order to measure cell permeability. 10 equivalents of fluorescein isothiocyanate (FITC) was bound to N-terminals of the synthesized domains by using triethylamine (1 ml per 1 g of resin). The synthesis of the peptide was confirmed by measuring the molecular weight thereof through MALDI-TOF.
In order to quantitatively confirm the cell permeability and cell permeation degree of fluorescence labeled magnetic nanoparticle conjugates, after 1×10^5 human mesenchymal stem cells (hMSC) were plated in each well of 6-well plate, the cells were cultured in a general medium for 20 hours (overnight incubation). […] fluorescence labeled cell permeable peptide-bone differentiation inducing sequence conjugate and […] fluorescence labeled bone differentiation inducing sequence that were obtained by binding FITC (SIGMA, USA) N-terminals of the cell permeable peptide-bone differentiation inducing sequence conjugate synthesized by the method in Example 1 and the domain in Comparative Example 2 to synthesize the fluorescence label conjugate and fluorescence label domain, followed by isolation and purification, were injected into each well and washed with the phosphate buffer solution (PBS) two times after 20, 40, 60, and 80 minutes of injection. […]

[2] = system: human mesenchymal stem cells (hMSC); experiment: Cell differentiation ability by calcein staining; format: cell-based; set-up: dose or concentration left out as unconfirmed; conditions: hard tissue-forming medium with calcein, 14 days, compared with PBS; FIG. 4A g-i
Protocol: In order to confirm cell differentiation ability of the cell permeable peptide-bone differentiation inducing sequence conjugate, human mesenchymal stem cells (hMSC) were seeded in each well of a 4-well chamber slide at 5×10^3/well, and then incubated in a general medium for 20 hours (overnight) for cell stabilization. The cells were treated with the cell permeable peptide-bone differentiation inducing sequence conjugate synthesized from Example 1 and the bone differentiation inducing sequence of Comparative Example 2 of […] for each, and then incubated in a hard tissue forming medium containing calcein (calcium staining, green) for 14 days. The composition of the hard tissue-forming medium consisted of an MSCBM medium containing 15% FBS (fetal bovine serum), […] of L-ascorbic acid, 10^−7 M dexamethasone, 1% antibiotic-antimycotic solution, and 10 mM beta-glycerol phosphate. After completion of the incubation, the medium was removed, and then the cells were washed with phosphate buffer solution (PBS) twice. The cells washed with the phosphate buffer solution were fixed with 10% NBF (neutral buffered formalin), and then the nucleus was stained (Hoechst 33342, blue). […]

ALP, OCN, and RUNX2 = experiment: Bone differentiation marker genes by quantitative real-time PCR and electrophoresis; format: cell-based, human; conditions: EtBr agarose gel, compared with PBS; FIG. 4C
Protocol: In order to confirm cell differentiation ability of the cell permeable peptide-bone differentiation inducing sequence conjugate through bone tissue differentiation marker genes, human mesenchymal stem cells (hMSC) were seeded in each well of a 6 cm-dish at 1×10^5/well, and then incubated in a general medium for 20 hours (overnight) for cell stabilization. After 20 hours of incubation, the cells were treated with the cell permeable peptide-bone differentiation inducing sequence conjugate and 10 μm of the bone differentiation inducing sequence of Comparative Example 2 for 72 hours.
After that, the entire RNA was separated from the treated cells, using a Trizol® reagent (reagent for isolating RNA from cell and tissue samples) (Invitrogen Life Technologies, USA), according to the manufacturer's instructions, and the amount and purity of the entire RNA were measured by the spectrophotometer. […]
In order to carry out the quantitative real-time PCR, cDNA to be used as a template and primers were mixed, like in RT-PCR, and then 10 μl of SYBR® Green Premix Ex Taq (TaKaRa, JAPAN) was mixed therewith to prepare a reaction material. […] The CT value of each gene was […] the CT value for housekeeping GAPDH gene and the value calculated based on the negative control was taken, so that comparison in the degree of mRNA expression was conducted (Shin et al., (2007) Plant J. 49, 981-994).

NH2-GAPPPADSAP-SSRKKNPNCRRH-C-COONH2 (H-GAPPPADSAPSSRKKNPNCRRHC-NH2; cysteine pairing not given here) [Example 1]
relative increase of fluorescence intensity (flow cytometry) [1]: ≥ 10 times | calcein staining degree of phosphorylated calcium [2]: relatively strong staining degree of phosphorylated calcium | bands of ALP, OCN, and RUNX2 PCR products (electrophoresis) (ALP, OCN, and RUNX2): noticeably increased bands
